Test results published in US20120201802A1, “METHOD FOR PRODUCING REDUCED COENZYME Q10, METHOD FOR STABILIZING SAME, AND COMPOSITION COMPRISING SAME” (Keneka Corporation, priority 2009, published 2012).

Legend:
[1] = Reduction of oxidized coenzyme Q10 in limonene (Example 2, Comparative Example 2); conditions: after reaction, oxidized CoQ10 0.1 g + plant extract 1.0 g or compound 0.69 mmol, 85° C., 16 hr, nitrogen atmosphere
Protocol: While the present invention is explained in more detail in the following by referring to Examples, the present invention is not limited to those Examples alone. Moreover, the purity of reduced coenzyme Q10, the weight ratio of reduced coenzyme Q10/oxidized coenzyme Q10, and the like in the Examples were measured by the following HPLC analysis. […] To conveniently indicate the weight ratio of reduced coenzyme Q10 and oxidized coenzyme Q10 in the present Example, the ratio of reduced coenzyme Q10 to the total amount of coenzyme Q10 (total amount of oxidized coenzyme Q10 and reduced coenzyme Q10) is shown in percentage as a “weight ratio of reduced coenzyme Q10”. For example, “the weight ratio of reduced coenzyme Q10 is 20%” means that the weight ratio of reduced coenzyme Q10 and oxidized coenzyme Q10 is 20/80. • (HPLC analysis conditions) • column; SYMMETRY C18 (manufactured by Waters) 250 mm (length) 4.6 mm (inner diameter), • mobile phase; C2H5OH:CH3OH=4:3 (v:v), • detection wavelength; 210 nm, • flow rate; 1 ml/min, • retention time of reduced coenzyme Q10; 9.1 min, • retention time of oxidized coenzyme Q10; 13.3 min. […]

[2] = Reduction of oxidized coenzyme Q10 in 99% ethanol (Example 1, Comparative Example 1); conditions: after reaction, oxidized CoQ10 0.1 g + plant extract 1.0 g (10-fold weight) or compound 0.69 mmol, 78° C., 16 hr, nitrogen atmosphere
Protocol: (§1) While the present invention is explained in more detail in the following by referring to Examples, the present invention is not limited to those Examples alone. Moreover, the purity of reduced coenzyme Q10, the weight ratio of reduced coenzyme Q10/oxidized coenzyme Q10, and the like in the Examples were measured by the following HPLC analysis. […] To conveniently indicate the weight ratio of reduced coenzyme Q10 and oxidized coenzyme Q10 in the present Example, the ratio of reduced coenzyme Q10 to the total amount of coenzyme Q10 (total amount of oxidized coenzyme Q10 and reduced coenzyme Q10) is shown in percentage as a “weight ratio of reduced coenzyme Q10”. For example, “the weight ratio of reduced coenzyme Q10 is 20%” means that the weight ratio of reduced coenzyme Q10 and oxidized coenzyme Q10 is 20/80. • (HPLC analysis conditions) • column; SYMMETRY C18 (manufactured by Waters) 250 mm (length) 4.6 mm (inner diameter), • mobile phase; C2H5OH:CH3OH=4:3 (v:v), • detection wavelength; 210 nm, • flow rate; 1 ml/min, • retention time of reduced coenzyme Q10; 9.1 min, • retention time of oxidized coenzyme Q10; 13.3 min.
Oxidized coenzyme Q10 crystal (0.1 g) and a component derived from a naturally-occurring substance (plant extract, 1.0 g, 10-fold weight) described in Table 1 were respectively added to 99% ethanol (15 g), and the mixture was stirred at 78° C. for 16 hr under a nitrogen atmosphere.
Oxidized coenzyme Q10 crystal (0.1 g, 0.12 mmol) and the compound described in Table 1 (0.69 mmol) were respectively added to 99% ethanol (15 g), and the mixture was stirred at 78° C. for 16 hr under a nitrogen atmosphere.

[3] = Reduction of oxidized coenzyme Q10 in Span 80/glycerol/Tween 80/MCT mixture (Example 3, Comparative Example 3); conditions: after reaction, oxidized CoQ10 0.1 g + plant extract 1.0 g or compound 0.69 mmol, 80° C., 16 hr, nitrogen atmosphere
Protocol: as §1
Oxidized coenzyme Q10 crystal (0.1 g) and a component derived from a naturally-occurring substance described in Table 3 (plant extract, 1.0 g, 10-fold weight) or a compound (0.69 mmol) were respectively added to a mixture of Span 80 (0.12 g), glycerol (0.09 g), Tween 80 (1.49 g) and MCT (0.43 g), and the mixture was stirred at 80° C. for 16 hr under a nitrogen atmosphere.

weight ratio of reduced coenzyme Q10 [1] [%]	weight ratio of reduced coenzyme Q10 [2] [%]	weight ratio of reduced coenzyme Q10 [3] [%]	Compound
1	–	–	O=C1O[C@H]([C@@H](O)CO)C([O-])=C1O.[Na+] [L-sodium ascorbate]
–	2	0	NC(=O)C1=CN([C@@H]2O[C@H](COP(=O)(O)OP(=O)(O)OC[C@H]3O[C@@H](n4cnc5c(N)ncnc54)[C@H](O)[C@@H]3O)[C@@H](O)[C@H]2O)C=CC1 [NADH]
1	–	–	O=C(O)CCCC[C@@H](S)CCS [R-dihydrolipoic acid]
–	0	0	C[N+](C)(C)CC(O)CC(=O)[O-] (stereo not shown) [carnitine]
–	4	3	CC1=C(/C=C/C(C)=C/C=C/C(C)=C/C=O)C(C)(C)CCC1 [retinal]
–	–	0	Cc1c(C)c2c(c(C)c1O)CC[C@@](C)(CCC[C@H](C)CCC[C@H](C)CCCC(C)C)O2 [α-tocopherol]
–	4	–	retinol acetate
